Target: T1, human SSAO (Homo sapiens, UniProt Q16853)
T1 construct: made in house
T1 sequence (Q16853 29-763 limits assumed): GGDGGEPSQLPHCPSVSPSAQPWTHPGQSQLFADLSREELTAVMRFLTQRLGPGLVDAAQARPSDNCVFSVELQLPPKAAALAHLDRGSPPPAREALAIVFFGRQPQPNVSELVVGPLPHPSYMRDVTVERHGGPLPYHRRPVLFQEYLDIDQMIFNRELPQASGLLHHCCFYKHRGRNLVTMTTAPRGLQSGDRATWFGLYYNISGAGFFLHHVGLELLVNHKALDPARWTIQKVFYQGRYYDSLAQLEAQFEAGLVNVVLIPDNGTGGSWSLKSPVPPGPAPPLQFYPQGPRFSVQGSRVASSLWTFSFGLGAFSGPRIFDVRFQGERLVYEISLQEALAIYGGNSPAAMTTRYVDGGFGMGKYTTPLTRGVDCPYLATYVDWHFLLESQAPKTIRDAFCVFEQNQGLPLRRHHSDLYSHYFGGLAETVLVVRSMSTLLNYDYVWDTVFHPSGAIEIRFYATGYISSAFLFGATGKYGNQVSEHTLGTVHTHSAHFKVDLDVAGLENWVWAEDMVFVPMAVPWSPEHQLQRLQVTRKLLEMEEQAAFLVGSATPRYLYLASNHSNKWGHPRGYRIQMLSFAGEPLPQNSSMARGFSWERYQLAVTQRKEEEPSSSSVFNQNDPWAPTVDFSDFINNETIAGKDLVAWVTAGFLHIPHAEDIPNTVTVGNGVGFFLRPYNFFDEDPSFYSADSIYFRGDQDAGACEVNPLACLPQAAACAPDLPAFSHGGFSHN
Experiment: SSAO enzyme inhibition assay (Amplex Red/HRP coupled, benzylamine substrate)
Type: biochemical
Conditions: purified recombinantly expressed human SSAO; benzylamine 100 μM; about 60 minutes pre-incubation; room temperature
Experimental: Biological Assay of the SSAO Enzyme Inhibitors
All assays were performed in room temperature with purified recombinantly expressed human SSAO. Enzyme was prepared essentially as described in Öhman et al. (Protein Expression and Purification 2006, 46, 321-331). The enzyme activity was measured with benzylamine as substrate and utilized the production of hydrogen peroxide for detection. In a horseradish peroxidise (HRP) coupled reaction, hydrogen peroxide oxidation of 10-acetyl-3,7-dihydroxyphenoxazine produced resorufin, which is a highly fluorescent compound (Zhout and Panchuk-Voloshina. Analytical Biochemistry 1997, 253, 169-174; Amplex® Red Hydrogen Peroxide/peroxidise Assay kit, Invitrogen A22188).
Briefly, test compounds were dissolved in dimethyl sulfoxide (DMSO) to a concentration of 10 mM. Dose-response measurements were assayed by either creating 1:10 serial dilutions in DMSO to produce a 7 point curve or by making 1:3 serial dilutions in DMSO to produce 11 point curves. […] Fluorescence intensity was then measured at several time points (15 minutes, 20 minutes and 30 minutes) exciting at 544 nm and reading the emission at 590 nm). […] The inhibition was measured as % decrease of the signal compared to a control without inhibitor (only diluted DMSO). […] Data was fitted to a four parameter logistic model and IC50 values were calculated using the GraphPad Prism 4 or XLfit 4 programs.

| Compound | IC50 [nM] |
| --- | --- |
| Cc1ccc(-c2nn(C3CCOCC3)c3ccncc23)cc1 [Example 3, 3-(4-Methylphenyl)-1-(tetrahydro-2H-pyran-4-yl)-1H-pyrazolo[4,3-c]pyridine] | 89 |
| Clc1ccc(-c2nn(C3CCNCC3)c3ccncc23)cc1 [Example 5, 3-(4-Chlorophenyl)-1-piperidin-4-yl-1H-pyrazolo[4,3-c]pyridine] | 120 |

Reference: patent publication US8633318B2, “Compounds for treatment or prevention of inflammation, an inflammatory disease, or an immune or an autoimmune disorder” (Proximagen Ltd, priority 2008, dated 2014)
